Reference: ChEMBL document CHEMBL4177732, “Anti-neuroinflammatory effects of sesquiterpenoids isolated from Nardostachys jatamansi” (Bioorg Med Chem Lett, 2018)

Tests used:
BV-2 [1] = test: Inhibition of lipopolysaccharide-induced nitric oxide production in mouse BV2 cells assessed as reduction in nitrite level by Griess reaction based ELISA; format: functional, cell-based
BV-2 [2] = test: Cytotoxicity in mouse BV2 cells by MTT assay; format: cell-based
BV-2 [3] = test: Inhibition of lipopolysaccharide-induced nitric oxide production in mouse BV2 cells assessed as reduction in nitrite level at 60 uM by Griess reaction based ELISA; format: functional
BV-2 [4] = test: Inhibition of lipopolysaccharide-induced iNOS protein expression in mouse BV2 cells pre-incubated for 3 hrs before LPS stimulation by Western blot method; format: functional, cell-based
BV-2 [5] = test: Inhibition of lipopolysaccharide-induced PGE2 production in mouse BV2 cells pre-incubated for 1 hr before LPS stimulation for 24 hrs; format: functional, cell-based
BV-2 [6] = test: Inhibition of lipopolysaccharide-induced IL-1beta production in mouse BV2 cells pre-incubated for 1 hr before LPS stimulation for 24 hrs by ELISA; format: functional, cell-based
BV-2 [7] = test: Inhibition of lipopolysaccharide-induced IL6 production in mouse BV2 cells pre-incubated for 1 hr before LPS stimulation for 24 hrs by ELISA; format: functional, cell-based
BV-2 [8] = test: Inhibition of lipopolysaccharide-induced TNFalpha production in mouse BV2 cells pre-incubated for 1 hr before LPS stimulation for 24 hrs by ELISA; format: functional, cell-based
Microglia [9] = test: Inhibition of lipopolysaccharide-induced nitric oxide production in Sprague-Dawley rat primary microglia cells assessed as reduction in nitrite level by Griess reaction based ELISA; format: functional, cell-based
Microglia [10] = test: Inhibition of lipopolysaccharide-induced PGE2 production in Sprague-Dawley rat primary microglia cells pre-incubated for 1 hr before LPS stimulation for 24 hrs; format: functional, cell-based
Microglia [11] = test: Inhibition of lipopolysaccharide-induced IL-1beta production in Sprague-Dawley rat primary microglia cells pre-incubated for 1 hr before LPS stimulation for 24 hrs by ELISA; format: functional, cell-based
Microglia [12] = test: Inhibition of lipopolysaccharide-induced IL6 production in Sprague-Dawley rat primary microglia cells pre-incubated for 1 hr before LPS stimulation for 24 hrs by ELISA; format: functional, cell-based
Microglia [13] = test: Inhibition of lipopolysaccharide-induced TNFalpha production in Sprague-Dawley rat primary microglia cells pre-incubated for 1 hr before LPS stimulation for 24 hrs by ELISA; format: functional, cell-based
BV-2 [14] = test: Inhibition of lipopolysaccharide-induced COX2 protein expression in mouse BV2 cells pre-incubated for 3 hrs before LPS stimulation by Western blot method; format: functional, cell-based
Microglia [15] = test: Inhibition of lipopolysaccharide-induced iNOS protein expression in Sprague-Dawley rat primary microglia cells pre-incubated for 3 hrs before LPS stimulation by Western blot method; format: functional, cell-based
Microglia [16] = test: Inhibition of lipopolysaccharide-induced COX2 protein expression in Sprague-Dawley rat primary microglia cells pre-incubated for 3 hrs before LPS stimulation by Western blot method; format: functional, cell-based

Row | Structure (SMILES) | IC50 (BV-2 [1]) | inhibition (BV-2 [1]) | Activity (BV-2 [2]) | inhibition at 60 µM (BV-2 [3]) | other results
1 | C=C1COC(=O)[C@H]2[C@@H]1C[C@H](O)[C@@]2(C)O [JATAMANIN A] | 27.8 µM | Dose-dependent effect | Non-Toxic | – | –
2 | CC(C)[C@]1(O)CC[C@@]2(C)[C@H](O)CC[C@](C)(O)[C@@H]2C1 | > 60 µM | – | Non-Toxic | 28.4% | –
3 | C[C@@H]1C[C@@H](O)C=C2C(=O)C=C[C@@H](C(C)(C)O)[C@]21C | 46.5 µM | Dose-dependent effect | Non-Toxic | – | –
4 | CC(C)C1CC[C@@](C)(O)[C@@H]2CC[C@](C)(O)[C@H]2[C@@H]1O (stereo partly drawn) | > 60 µM | – | Non-Toxic | 34% | –
5 | C[C@@H]1C[C@H](O)C=C2C(=O)C=C[C@@H](O)[C@]21C [NARCHINOL B] | 2.43 µM | Dose-dependent effect | Non-Toxic | – | inhibition (BV-2 [4]): Dose-dependent effect; IC50 (BV-2 [5]): 2.38 µM; IC50 (BV-2 [6]): 1.73 µM; IC50 (BV-2 [7]): 2.9 µM; IC50 (BV-2 [8]): 1.7 µM; IC50 (Microglia [9]): 4.17 µM; IC50 (Microglia [10]): 3.1 µM; IC50 (Microglia [11]): 3.11 µM; IC50 (Microglia [12]): 4 µM; IC50 (Microglia [13]): 9.83 µM; inhibition (BV-2 [14]): Dose-dependent effect; inhibition (Microglia [15]): Dose-dependent effect; inhibition (Microglia [16]): Dose-dependent effect
6 | CC(C)(O)C[C@@H]1CC[C@]2(C)[C@@H](O)CC[C@@](C)(O)[C@@H]12 | – | Dose-dependent effect | Non-Toxic | 39% | –
7 | C[C@@H]1C[C@H](O)C=C2C(=O)C=C[C@@H](C(C)(C)O)[C@]21C | 30.5 µM | Dose-dependent effect | Non-Toxic | – | –
8 | C=C1[C@@H]2O[C@@H](OC)[C@H]3[C@@H]1C[C@H](O)[C@]3(C)O2 | > 60 µM | – | Non-Toxic | 39.7% | –
9 | C[C@@H]1CCC=C2C(=O)C=C[C@@H](O)[C@]21C | 3.48 µM | Dose-dependent effect | Non-Toxic | – | inhibition (BV-2 [4]): Dose-dependent effect; IC50 (BV-2 [5]): 2.05 µM; IC50 (BV-2 [6]): 2.04 µM; IC50 (BV-2 [7]): 3.57 µM; IC50 (BV-2 [8]): 2.11 µM; IC50 (Microglia [9]): 4.96 µM; IC50 (Microglia [10]): 5.33 µM; IC50 (Microglia [11]): 5.84 µM; IC50 (Microglia [12]): 3.62 µM; IC50 (Microglia [13]): 3.18 µM; inhibition (BV-2 [14]): Dose-dependent effect; inhibition (Microglia [15]): Dose-dependent effect; inhibition (Microglia [16]): Dose-dependent effect
